Assay results reported in PMC10799058, “Exploring the mechanism and phytochemicals in Psoraleae Fructus-induced hepatotoxicity based on RNA-seq, in vitro screening and molecular docking” (Scientific Reports, 2024).
pIC50: −log10 of the molar value. ≈ marks a conversion by molar mass, not a printed value. Read-outs that look alike come from different tables or passages of the source.

Columns and labels:
AML-12 cells [1] = experiment: CCK-8 assay, toxic effects on AML-12 cells; assay type: cell-based; details: for pIC50: CCK-8, treatment 24 h, read-out: IC50 toward AML12 cells
Description: To uncover the potential hepatotoxic components, CCK-8 assay was performed toevaluate the toxic effects of 9 chemicals in PF on AML-12 cells. With the treatment […]
AML-12 cells were seeded into 96-well plates for 24 h until they visibly reached confluence. Then, AML-12 cells were treated with different concentrations of the nine chemical compounds in PF for 24 h. The multiple concentrations of each compound […]
wells were set up for each group. After treatment, AML-12 cells were washed with PBS buffer gently and incubated with DMEM/F12 medium containing 10% CCK-8 solution for 0.5-2 h. OD value was measured with live cell imaging system (Cytation 5,BioTek, USA) at 450 nm.
Cell viability (%) = [(OD value of the experimental group − OD value of the blank group)/ (OD value of the control group − OD value of the blank group)] ×

AML-12 cells [2] = experiment: High-content screening of mitotoxic endpoints (MMP by TMRM, mitochondrial superoxide by MitoSOX Red); details: 15 μmol/L, 24 h; for mitochondrial toxicity, overall ranking among 9 phytochemicals: MMP and mitochondrial superoxide taken together; for fluorescence intensity of Mitosox red (mitochondrial superoxide): versus control
Description: AML-12 cells were purchased from Procell (CL-0602, Wuhan, China) and cultured in cultured in DMEM/F12 medium (Gibco, Thermo Fisher Scientific, USA) with the supplement of 10% fetal bovine serum (FBS, Biological Industrials) and 1% penicillin/streptomycin (FG101-01, Transgene, China). AML-12 cells were maintained in a humidified incubator containing 5% CO2 at 37 °C.
AML-12 cells were seeded into 96-well plates and incubated at 37 °C in an atmosphere containing 5% CO2 for 12 h until they visibly reached confluence. After the cells were treated with the same concentration of each drug (15 μmol/L) for 24 h, the supernatants were removed from the cell plates and the fluorescent dyes were added. Hoechst 33,342 was applied to characterize cell counts and nuclear area. TMRM and MitoSOX™ Red were applied to characterize mitochondrial membrane potential (MMP) and mitochondrial superoxides, respectively. Then, the multi-parameter cytotoxicities were measured by a high content imaging system (Molecular Devices, Metaxpress) and subsequent data analysis was performed by Harmony 3.0 Software (Perkin Elmer, Waltham, MA, USA). Each experiment was assayed in triplicate wells and three independent replicates.

[3] = Solubility in DMEM/F12 culture medium; details: aqueous buffer, kinetic from dmso stock

Row | Compound | pIC50 (AML-12 cells [1]; Mus musculus, AML12) | mitochondrial toxicity, overall ranking among 9 phytochemicals (AML-12 cells [2]) | fluorescence intensity of Mitosox red (mitochondrial superoxide) (AML-12 cells [2]) | toxicity to AML-12 cells (AML-12 cells [1]) | solubility [3] [µM] | pIC50 (AML-12 cells [1])
1 | C=C[C@@](C)(/C=C/c1ccc(O)cc1)CCC=C(C)C [bakuchiol] | 4.46 | most potent mitochondrial toxicities | prominently promoted | – | – | –
2 | CC(C)=CCc1cc2c(cc1O)O[C@H](c1ccc(O)cc1)CC2=O [bavachin, Bavachin] | 4.48 | most potent mitochondrial toxicities | prominently promoted | – | – | –
3 | CC(C)=CCc1c(O)ccc(C(=O)/C=C/c2ccc(O)cc2)c1O [isobavachalcone] | 4.54 | most potent mitochondrial toxicities | prominently promoted | – | – | –
4 | O=c1ccc2ccc3occc3c2o1 [isopsoralen] | – | – | – | no obvious toxicity | 800 (≈ 149 µg/mL) | –
5 | CC(C)=CCc1cc2c(cc1O)oc(=O)c1c3ccc(O)cc3oc21 [psoralidin, Psoralidin] | – | – | prominently promoted | – | – | 4.75
6 | Corylin | – | – | – | – | – | 4.46
7 | bavachinin | – | – | – | – | – | 4.22
